Bridge positions count the residues as written; N and C are the ends. Square brackets hold non-standard residues; d marks the D form. Ends that are not written are not given here. Peptide text beside a SMILES is read from it. * marks the point of attachment. 5FAM = O=C1OC2(c3ccc(O)cc3Oc3cc(O)ccc32)c2ccc(C(=O)*)cc21; Biotin = O=C1N[C@H]2[C@H](CS[C@H]2CCCCC(=O)*)N1; Nle = CCCC[C@H](N)C(=O)O

One may read the EC50 as the concentration that produces a half-maximal response.

Series [1] has as its system LRP1 cluster 2-Fc chimeric proteins. The series is described as follows: ELISA binding test of biotin-labeled peptides. As to conditions: biotinylated peptide 1,000 nM to 1.4 nM. How it is done: (§1) To evaluate the binding activity of the peptides to LRP1, an ELISA-based binding assay was constructed. The ELISA method will be briefly described below. First, a goat antihuman IgG-Fcγ polyclonal antibody (Catalog No. 109-0005-008, manufactured by Jackson Immuno Research) was added to a 96-well Maxisorp plate (Catalog No. 439454, manufactured by Nunc) at 1 µg/50 µL/well using D-PBS, followed by coating overnight at 4°C. Then, 0.5% BSA/D-PBS was further added at 300 µL/well, and blocking was carried out at room temperature for 30 minutes. After washing the plate with 0.1% Tween 20/D-PBS, LRP1 recombinant proteins, namely, LRP1 cluster 2-Fc chimeric proteins (Catalog No. 2368-L2-050, manufactured by R & D Systems), LRP1 cluster 3-Fc chimeric proteins (Catalog No. 48248-L3-050, manufactured by R & D Systems), or LRP1 cluster 4-Fc chimeric proteins (Catalog No. 5395-L4-050, manufactured by R & D Systems), were added at 100 ng/50 µL/well using 0.5% BSA/D-PBS, and allowed to react with the coated antibodies at room temperature for 30 minutes. After washing the plate with 0.1% Tween 20/PBS, Sequences 45 and 46, which were biotinylated peptides, were prepared at an arbitrary concentration using 0.5% BSA/D-PBS, and added at 50µL/well. After causing a reaction at room temperature for 30 minutes, the plate was washed with 0.1% Tween 20/D-PBS. Sequences 45 and 46 bound to the LRP1 recombinant proteins captured on the plate were detected with SA-HRP (Catalog No. ab7403, manufactured by Abeam). For quantification of HRP, TMB ELISA Substrate Solution (Catalog No. 34028, manufactured by Thermo Fisher) was used to measure absorbance at 450 nm.
On the technique in general: In an ELISA, binding on a coated surface is turned into a signal by an enzyme label.

For series [2], the system named is LRP1 cluster 3-Fc chimeric proteins. The series is described as follows: ELISA binding test of biotin-labeled peptides. The note with it: biotinylated peptide 1,000 nM to 1.4 nM. How it is done: as §1
Series [3] relates to LRP1 cluster 4-Fc chimeric proteins. Briefly: ELISA binding test of biotin-labeled peptides. The note with it: for binding to the LRP1 cluster 4-Fc chimeric proteins: biotinylated peptide 1,000 nM to 1.4 nM; for EC50: biotinylated peptide, SA-HRP detection, absorbance at 450 nm, n = 4. On the procedure: as §1
Series [4] has the same test system. Briefly: Competitive binding assay by ELISA against Sequence 46. On the procedure: (§2) For comparison between the peptide of Sequence 1 with amino acid substitutions and the peptide of Sequence 2 in terms of the LRP1 binding activity and the resistance to protease degradation, a competitive binding assay by ELISA shown in FIG. 2 was constructed. Immediately (zero hour) or 24 hours after the mixing of the peptide of Sequence 2 or the amino acid-substituted peptide with mouse plasma at 37°C, the mixture was diluted to sufficiently lower the plasma concentration to any desired final concentration, and mixed with Sequence 46 (500 nM). This mixture was subjected to the competitive binding assay described above. The binding of Sequence 46 to the LRP1 cluster 4-Fc chimera proteins competes with the binding of Sequence 2 or the amino acid-substituted peptide to the LRP1 cluster 4-Fc chimera proteins, and thus is inhibited depending on the concentration of Sequence 2 or the amino acid-substituted peptide. That is, the binding activity of Sequence 2 or the amino acid-substituted peptide to the LRP1 cluster 4-Fc chimera proteins is detected as competitive inhibitory activity against the binding of Sequence 46. Regarding the binding value of Sequence 46 to the wells in which the LRP1 cluster 4-Fc chimeric proteins were not captured as 100% inhibitory activity and the binding value of Sequence 46 to the wells in which Sequence 2 or the amino acid-substituted peptide was not added as 0% inhibitory activity, the inhibitory activity values of Sequence 2 and the amino acid-substituted peptide were calculated in %.
Sequence 2 incubated with plasma for zero hour inhibited the binding of Sequence 46 in a concentration-dependent manner. […] However, the binding of Sequence 46 (500 nM) in wells loaded with 2,000 nM equivalent Sequence 2 averaged 50.6%.
Immediately or 24 hours after Sequences 1 to 44 were mixed with mouse plasma at 37°C, the mixtures were diluted to sufficiently lower the plasma concentration to a final concentration of 2,000 nM, and mixed with Sequence 46 (500 nM). The obtained mixtures were subjected to the above-described competitive binding assay. […] Other sequences tended to have diminished inhibitory activities.

Series [5] can be described thus: Resistance to protease degradation in mouse plasma, read out by competitive binding ELISA. The class given is in vitro ADME. As to conditions: 37°C, inferred from loss of inhibitory activity. How it is done:
as §2, with “The binding of Sequence 46 to the LRP1 cluster 4-Fc chimera proteins competes with the binding of Sequence 2 or the amino acid-substituted peptide to the LRP1 cluster 4-Fc chimera proteins, and thus is inhibited depending on the concentration of Sequence 2 or the amino acid-substituted peptide.” left out, “%. […]” for “%.”

Series [6] deals with LRP1 cluster 4-Fc chimeric proteins (UniProt Q07954). Briefly: competitive ELISA, LRP1 cluster 4-Fc captured; peptide 2,000 nM against biotin-Sequence 46 500 nM.
The target is the same in series [7]. The series is described as follows: competitive ELISA, LRP1 cluster 4-Fc captured; Sequence 2 at 500 nM (zero hour in mouse plasma) against biotin-Sequence 46 500 nM.
The target is the same in series [8]. The series is described as follows: competitive ELISA, LRP1 cluster 4-Fc captured; Sequence 2 at 2,000 nM equivalent after 24 h in mouse plasma at 37 C (about 75% degraded) against biotin-Sequence 46 500 nM.

UniProt Q07954, sequence (Q07954 3293-3783, stated change not applied): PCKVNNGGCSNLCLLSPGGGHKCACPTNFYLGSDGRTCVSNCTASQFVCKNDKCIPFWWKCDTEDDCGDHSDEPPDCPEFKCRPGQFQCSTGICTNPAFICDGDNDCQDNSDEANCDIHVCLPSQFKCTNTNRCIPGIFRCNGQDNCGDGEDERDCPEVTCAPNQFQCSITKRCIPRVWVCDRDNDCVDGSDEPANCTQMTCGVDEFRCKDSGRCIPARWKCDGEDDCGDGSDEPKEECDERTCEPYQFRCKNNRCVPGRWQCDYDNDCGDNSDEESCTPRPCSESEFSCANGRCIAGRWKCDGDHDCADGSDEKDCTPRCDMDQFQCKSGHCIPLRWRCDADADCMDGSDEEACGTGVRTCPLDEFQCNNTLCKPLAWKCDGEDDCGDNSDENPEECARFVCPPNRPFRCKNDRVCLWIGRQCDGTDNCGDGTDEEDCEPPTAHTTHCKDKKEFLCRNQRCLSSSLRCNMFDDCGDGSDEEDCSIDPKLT

As for “Ac-K(Biotin)GTPCTYKY[Nle]LAE[Nle]C-OH (cysteine pairing not given here) [Sequence 45]”, in series [1], the “binding to the LRP1 cluster 2-Fc chimeric proteins” value is on record as “little or no binding”. Besides, in series [2], the “binding to the LRP1 cluster 3-Fc chimeric proteins” value is reported as “little or no binding”. In addition, in series [3], the “binding to the LRP1 cluster 4-Fc chimeric proteins” value was “selectively and in a peptide concentration-dependent manner”; a half-maximal effect (EC50) was put at 10.5 nM.
As for `CCCC[C@@H]1NC(=O)[C@H](CCC(=O)O)NC(=O)[C@H](C)NC(=O)[C@H](CC(C)C)NC(=O)[C@H](CCCC)NC(=O)[C@H](Cc2ccc(O)cc2)NC(=O)[C@H](CCCCN)NC(=O)[C@H](Cc2ccc(O)cc2)NC(=O)[C@H]([C@@H](C)O)NC(=O)[C@@H](NC(=O)[C@@H]2CCCN2C(=O)[C@@H](NC(=O)CNC(=O)[C@H](CCCCNC(=O)c2ccc3c(c2)C(=O)OC32c3ccc(O)cc3Oc3cc(O)ccc32)NC(C)=O)[C@@H](C)O)CSSC[C@@H](C(=O)O)NC1=O` [Sequence 2, Ac-Lys(5FAM)-Gly-Thr-Pro-c(Cys-Thr-Tyr-Lys-Tyr-Nle-Leu-Ala-Glu-Nle-Cys)-OH] (Ac-K(5FAM)GTPCTYKY[Nle]LAE[Nle]C-OH; disulfide 5-15), the inhibitory activity in series [4] (peptide 2,000 nM versus Sequence 46 (500 nM), time point not stated) stood at 79.4%. The “binding of Sequence 46 (500nM)” value was 50.6% in series [4] (wells loaded with 2,000 nM equivalent Sequence 2, incubated with mouse plasma for 24 hours at 37°C, average) and 52.4% in series [4] (wells with 500 nM Sequence 2, incubated with mouse plasma for zero hour, n = 4, average). Also, the “degraded during the 24-hour incubation with the mouse plasma” value in series [5] is recorded as “approximately 75%”.
For `CCCC[C@@H]1NC(=O)[C@H](CCC(=O)O)NC(=O)[C@H](C)NC(=O)[C@H](CC(C)C)NC(=O)[C@H](CCCC)NC(=O)[C@H](Cc2ccc(O)cc2)NC(=O)[C@H](CCCCN)NC(=O)[C@H](Cc2ccc(O)cc2)NC(=O)[C@H]([C@@H](C)O)NC(=O)[C@@H](NC(=O)[C@@H]2CCCN2C(=O)[C@@H](NC(=O)CNC(=O)[C@H](CCCCNC(=O)CCCC[C@@H]2SC[C@@H]3NC(=O)N[C@@H]32)NC(C)=O)[C@@H](C)O)CSSC[C@@H](C(=O)O)NC1=O` [Sequence 46, Ac-Lys(Biotin)-Gly-Thr-Pro-c(Cys-Thr-Tyr-Lys-Tyr-Nle-Leu-Ala-Glu-Nle-Cys)-OH] (Ac-K(Biotin)GTPCTYKY[Nle]LAE[Nle]C-OH; disulfide 5-15), the “binding to the LRP1 cluster 2-Fc chimeric proteins” value in series [1] is “little or no binding”. Also, the “binding to the LRP1 cluster 3-Fc chimeric proteins” value in series [2] is “little or no binding”. Also, in series [3], the “binding to the LRP1 cluster 4-Fc chimeric proteins” value is “selectively and in a peptide concentration-dependent manner”; the EC50 is 11 nM.
Take Ac-K(5FAM)GTPCTYKY[Nle]LAE[Nle]C (disulfide 5-15) [SEQUENCE 2]: the inhibitory activity (%) in series [6] was found to be 79.4%. Moreover, the values for the binding of Sequence 46 (%) in the presence of the peptide in series [7] and in series [8] were 52.4% and 50.6%, respectively.

The values are drawn from EP4541891A1, “NOVEL LRP1-BINDING PEPTIDE” (Ichimaru Pharcos Co., Ltd., priority 2022, dated 2025).
